Reference: BindingDB's records for patent US11433071 (Incyte Corporation; Incyte Holdings Corporation, 2022)

The molecules below were run against T1, Phosphatidylinositol 4,5-bisphosphate 3-kinase catalytic subunit delta isoform (Homo sapiens, UniProt O00329) (assay: PI3Kδ Scintillation Proximity Assay).
T1 sequence (O00329 whole entry): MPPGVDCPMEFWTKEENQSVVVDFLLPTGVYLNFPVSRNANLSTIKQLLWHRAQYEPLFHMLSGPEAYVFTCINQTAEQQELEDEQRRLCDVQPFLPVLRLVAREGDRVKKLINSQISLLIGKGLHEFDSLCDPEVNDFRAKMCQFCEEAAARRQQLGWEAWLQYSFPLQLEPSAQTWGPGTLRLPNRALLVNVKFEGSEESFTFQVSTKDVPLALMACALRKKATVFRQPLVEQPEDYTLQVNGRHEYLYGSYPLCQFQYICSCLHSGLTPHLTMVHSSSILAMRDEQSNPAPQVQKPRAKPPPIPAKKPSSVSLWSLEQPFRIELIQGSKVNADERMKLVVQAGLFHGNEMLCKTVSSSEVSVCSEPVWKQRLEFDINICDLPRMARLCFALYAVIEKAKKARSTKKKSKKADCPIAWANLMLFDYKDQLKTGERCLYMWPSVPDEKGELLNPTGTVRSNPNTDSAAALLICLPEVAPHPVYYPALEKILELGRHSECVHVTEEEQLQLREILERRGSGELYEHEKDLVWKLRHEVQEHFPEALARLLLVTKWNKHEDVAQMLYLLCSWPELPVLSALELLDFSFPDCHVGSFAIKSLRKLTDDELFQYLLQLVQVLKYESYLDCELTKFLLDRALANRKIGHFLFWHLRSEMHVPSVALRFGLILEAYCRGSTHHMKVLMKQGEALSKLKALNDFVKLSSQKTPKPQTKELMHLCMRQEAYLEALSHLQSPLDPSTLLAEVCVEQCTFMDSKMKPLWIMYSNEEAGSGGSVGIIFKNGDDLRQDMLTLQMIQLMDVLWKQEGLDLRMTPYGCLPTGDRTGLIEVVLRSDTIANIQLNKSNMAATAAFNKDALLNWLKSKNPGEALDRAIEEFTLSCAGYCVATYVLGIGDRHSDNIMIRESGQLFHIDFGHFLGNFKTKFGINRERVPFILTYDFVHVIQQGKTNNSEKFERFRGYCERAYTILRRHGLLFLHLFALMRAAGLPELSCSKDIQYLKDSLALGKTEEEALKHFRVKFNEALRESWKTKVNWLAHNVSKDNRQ
Description: The kinase reaction was conducted in polystyrene 384-well matrix white plate from Thermo Fisher Scientific in a final volume of 25 μL. Inhibitors were first diluted serially in DMSO and added to the plate wells before the addition of other reaction components. The final concentration of DMSO in the assay was 0.5%. The PI3K assays were carried out at room temperature in 20 mM MOPS, pH 6.7, 10 mM MgCl2, 5 mM DTT and CHAPS 0.03%. Reactions were initiated by the addition of ATP, the final reaction mixture consisted of 20 μM PIP2, 20 μM ATP, 0.2 μCi [γ-33P] ATP, 4 nM PI3Kδ. […] 25 mM EDTA, 400 µM ATP. The final concentration of SPA beads was 1.0 mg/mL. After the plate sealing, plates were shaken overnight at room temperature and centrifuged at 1800 rpm for 10 minutes, the radioactivity of the product was determined by scintillation counting on Topcount (Perkin-Elmer).

SMILES | IC50
CCOc1c(C(C)n2nc(C)c3c(N)ncnc32)cc(Cl)c(C#N)c1C1CN(c2cncc(C#N)c2)C1 (stereo unspecified) [US11433071, Example 330] | < 10 nM
CCOc1c(C(C)n2nc(C)c3c(N)ncnc32)cc(Cl)c(C#N)c1C1CN(c2cncc(C(=O)N(C)C)c2)C1 (stereo unspecified) [US11433071, Example 331] | < 10 nM
CCOc1c(C(C)n2nc(C)c3c(N)ncnc32)cc(Cl)c(C#N)c1C1CN(c2ccnc(C(=O)N(C)C)c2)C1 (stereo unspecified) [US11433071, Example 334] | < 10 nM
CCOc1c(C(C)n2nc(C)c3c(N)ncnc32)cc(C)c(C#N)c1C1CN(c2cncc(S(C)(=O)=O)c2)C1 (stereo unspecified) [US11433071, Example 335] | < 10 nM
CCOc1c(C(C)n2nc(C)c3c(N)ncnc32)cc(Cl)c(C#N)c1C1CN(c2ccc(-c3nnn(C)n3)nc2)C1 (stereo unspecified) [US11433071, Example 336] | < 10 nM
CCOc1c(C(C)n2nc(C)c3c(N)ncnc32)cc(Cl)c(C#N)c1C1CN(c2ccc(-c3cnn(C)n3)nc2)C1 (stereo unspecified) [US11433071, Example 337] | < 10 nM
CCOc1c(C(C)n2nc(C)c3c(N)ncnc32)cc(Cl)c(C#N)c1C1CN(N2CC(COC)C2)C1 (stereo unspecified) [US11433071, Example 341] | < 10 nM
CCOc1c(C(C)n2nc(C)c3c(N)ncnc32)cc(Cl)c(C#N)c1C1CN(N2CC(C#N)C2)C1 (stereo unspecified) [US11433071, Example 342] | < 10 nM
CCOc1c(C(C)n2nc(C)c3c(N)ncnc32)cc(C)c(C#N)c1C1CN(c2cnn(C)c2)C1 (stereo unspecified) [US11433071, Example 343] | < 10 nM
COc1c([C@H](C)n2cc(C)c(=O)c3c(N)ncnc32)cc(Cl)c(C)c1-c1ccc(C[C@@H](C)O)nc1 [US11433071, Example 362] | < 10 nM

Each molecule was assayed against T1, Phosphatidylinositol 4,5-bisphosphate 3-kinase catalytic subunit delta isoform (assay: PI3K Enzyme Assay).
Description: Materials: Lipid kinase substrate, phosphoinositol-4,5-bisphosphate (PIP2), are purchased from Echelon Biosciences (Salt Lake City, Utah). PI3K isoforms α, β, δ and γ are purchased from Millipore (Bedford, Mass.). ATP, MgCl2, DTT, EDTA, MOPS and CHAPS are purchased from Sigma-Aldrich (St. Louis, Mo.).The kinase reaction are conducted in clear-bottom 96-well plate from Thermo Fisher Scientific in a final volume of 24 μL. Inhibitors are first diluted serially in DMSO and added to the plate wells before the addition of other reaction components. The final concentration of DMSO in the assay is 0.5%. The PI3K assays are carried out at room temperature in 20 mM MOPS, pH 6.7, 10 mM MgCl2, 5 mM DTT and CHAPS 0.03%. The reaction mixture is prepared containing 50 μM PIP2, kinase and varying concentration of inhibitors. Reactions are initiated by the addition of ATP containing 2.2 μCi [γ-33P]ATP to a final concentration of 1000 μM. The final concentration of PI3K isoforms α, β, δ and γ in the assay were 1.3, 9.4, 2.9 and 10.8 nM, respectively. Reactions are incubated for 180 minutes and terminated by the addition of 100 μL of 1 M potassium phosphate pH 8.0, 30 mM EDTA quench buffer. […] After the plate sealing, the radioactivity of the product is determined by scintillation counting on Topcount (Perkin-Elmer). […]

SMILES | IC50
COc1c([C@@H](C)n2cc(C)c(=O)c3c(N)ncnc32)cc(Cl)c(C)c1-c1ccc(C[C@H](C)O)nc1 [US11433071, Example 361] | > 500 nM
